Test results published in a compilation of properties of binary mixtures (doi:10.1016/j.jct.2017.12.009).

Experiment: xn = mol fraction of the nth substance listed
Settings: 101 kPa

Structure (SMILES): CO + CCCC[N+]1(C)CCCC1.O=S(=O)([O-])C(F)(F)F
- speed of sound (278.15 K, x2 = 0): 1169 m/s
- speed of sound (288.15 K, x2 = 0): 1135 m/s

Structure (SMILES): CCCC[N+]1(C)CCCC1.O=S(=O)([O-])C(F)(F)F + CO
- speed of sound (278.15 K, x1 = 0.0501): 1228 m/s
- speed of sound (278.15 K, x1 = 0.1004): 1274 m/s
- speed of sound (278.15 K, x1 = 0.1503): 1311 m/s
- speed of sound (278.15 K, x1 = 0.3002): 1389 m/s
- speed of sound (278.15 K, x1 = 0.3996): 1421 m/s
- speed of sound (278.15 K, x1 = 0.4998): 1445 m/s
- speed of sound (278.15 K, x1 = 0.6006): 1463 m/s
- speed of sound (278.15 K, x1 = 0.7015): 1478 m/s
- speed of sound (278.15 K, x1 = 0.8013): 1490 m/s
- speed of sound (278.15 K, x1 = 0.8427): 1495 m/s
- speed of sound (278.15 K, x1 = 0.9008): 1501 m/s
- speed of sound (278.15 K, x1 = 1): 1513 m/s
- speed of sound (288.15 K, x1 = 0.0501): 1198 m/s
- speed of sound (288.15 K, x1 = 0.2002): 1316 m/s
- speed of sound (288.15 K, x1 = 0.3002): 1363 m/s
- speed of sound (288.15 K, x1 = 0.3996): 1396 m/s
- speed of sound (288.15 K, x1 = 0.4998): 1420 m/s
- speed of sound (288.15 K, x1 = 0.6006): 1439 m/s
- speed of sound (288.15 K, x1 = 0.7015): 1453 m/s
- speed of sound (288.15 K, x1 = 0.8013): 1465 m/s
- speed of sound (288.15 K, x1 = 0.8427): 1470 m/s
- speed of sound (288.15 K, x1 = 0.9008): 1476 m/s
- speed of sound (288.15 K, x1 = 0.9514): 1480 m/s
- speed of sound (298.15 K, x1 = 0.0501): 1168 m/s
- speed of sound (298.15 K, x1 = 0.1503): 1257 m/s
- speed of sound (298.15 K, x1 = 0.3002): 1338 m/s
- speed of sound (298.15 K, x1 = 0.3996): 1371 m/s
- speed of sound (298.15 K, x1 = 0.4998): 1396 m/s
- speed of sound (298.15 K, x1 = 0.6006): 1415 m/s
- speed of sound (298.15 K, x1 = 0.7015): 1429 m/s
- speed of sound (298.15 K, x1 = 0.8427): 1446 m/s
- speed of sound (298.15 K, x1 = 0.9008): 1452 m/s
- speed of sound (298.15 K, x1 = 0.9514): 1456 m/s
- speed of sound (298.15 K, x1 = 1): 1461 m/s
- speed of sound (308.15 K, x1 = 0.0501): 1138 m/s
- speed of sound (308.15 K, x1 = 0.1004): 1190 m/s
- speed of sound (308.15 K, x1 = 0.1503): 1231 m/s
- speed of sound (308.15 K, x1 = 0.2002): 1264 m/s
- speed of sound (308.15 K, x1 = 0.3002): 1313 m/s
- speed of sound (308.15 K, x1 = 0.4998): 1372 m/s
- speed of sound (308.15 K, x1 = 0.7015): 1406 m/s
- speed of sound (308.15 K, x1 = 0.8013): 1418 m/s
- speed of sound (308.15 K, x1 = 0.8427): 1423 m/s
- speed of sound (308.15 K, x1 = 0.9008): 1429 m/s
- speed of sound (308.15 K, x1 = 0.9514): 1433 m/s
- speed of sound (308.15 K, x1 = 1): 1438 m/s
- speed of sound (318.15 K, x1 = 0.0501): 1110 m/s
- speed of sound (318.15 K, x1 = 0.1004): 1163 m/s
- speed of sound (318.15 K, x1 = 0.1503): 1205 m/s
- speed of sound (318.15 K, x1 = 0.2002): 1239 m/s
- speed of sound (318.15 K, x1 = 0.3002): 1289 m/s
- speed of sound (318.15 K, x1 = 0.3996): 1324 m/s
- speed of sound (318.15 K, x1 = 0.4998): 1349 m/s
- speed of sound (318.15 K, x1 = 0.6006): 1368 m/s
- speed of sound (318.15 K, x1 = 0.7015): 1383 m/s
- speed of sound (318.15 K, x1 = 0.8427): 1400 m/s
- speed of sound (318.15 K, x1 = 0.9008): 1406 m/s
- speed of sound (318.15 K, x1 = 0.9514): 1411 m/s
- speed of sound (318.15 K, x1 = 1): 1415 m/s
